# Source: US20090221651A1, “CHEMICAL PRECONDITIONING AS A PREVENTATIVE OR TREATMENT FOR EXCITOTOXIC SYNAPTIC DAMAGE” (priority 2005, published 2009)
# Where “and” joins values, the source holds several entries; their conditions need not be identical. Equal values may be shown once. Entries after “also recorded” stand apart in the source; their conditions may differ.
# How the values were obtained:
# Format in all cases: cell-based, rat
# [1] = system: dissociated hippocampal cultures; assay: 60-hour cPAF exposure of dissociated hippocampal cultures: dendritic beading, spine number, neuronal survival; settings: 130 nM cPAF, 60-hour exposure
# Description: (§1) Primary hippocampal cultures and dendrite imaging. Dissociated hippocampal cultures from embryonic (E18) rats were prepared as previously described (53), plated on coverslips coated with poly-D-lysine and mouse laminin (reagents from Sigma-Aldrich unless otherwise noted) in Neurobasal plus B-27 media (GIBCO). After one week, 53 mM NaCl was added (to match solutions for physiological experiments) and antioxidants were removed from the media. Experiments were repeated using cultures from multiple dissections. Rodents were housed and treated in compliance with University of Rochester Committee on Animal Resources and NIH policies, and New York State and federal statutes.
# (§2) At 20-24 days in vitro (DIV) neurons were transfected with EYFP (Clontech) or mRFP-1 (kind gift of Roger Tsien) vectors driven by CMV promoter, in a 1:2 ratio with Lipofectamine 2000 (Invitrogen). Serial fluorescence images of individual, live neurons (23-30 DIV) before and after exposure to 130 nM cPAF (Biomol) and/or synaptic stimulation by KCl were captured. For 60-hour exposure experiments, a 10 mM stock solution of cPAF (in EtOH) or vehicle was diluted into culture media. Neuronal survival was measured by Hoechst nuclear staining and propidium iodide exclusion.
# (§3) Dendrite morphology. For in vitro experiments pre- and post-exposure images of the same cells were compared. A neuron was considered beaded if its dendrites developed any focal swellings during the experiments (10, 14), though multiple dendrites were typically involved. Changes in spine number were determined by counting spines on the same dendrites before and after treatment.
# (§4) Statistics. Differences in frequencies of dendritic beading were analyzed by Chi square, and changes in dendritic spine number by paired t-test. EPSP slope data were pooled over 10-minute intervals and used two-tailed t-tests to compare between groups or time points. A 0.05 significance level was used for all tests.
# [2] = system: dissociated hippocampal cultures; assay: Dendritic beading in cultured neurons after depolarizing KCl pulses; settings: for dendritic beading after 1 s KCl pulses in cPAF-exposed cultures: CNQX 10 μM together with AP-5 50 μM
# Description: as §1, §2
# For acute KCl stimulation experiments, coverslips were perfused in a custom-made chamber (200 μl) with bath solution (in mM: NaCl 139.5, KCl 2.5, CaCl2 2, MgCl2 1, glucose 24, HEPES 5, glycine 0.01, pH 7.3) at […], and exposed cultures to vehicle or cPAF for 20-90 min prior to stimulation. KCl (90 mM) was locally applied over the entire dendritic arbor of EYFP- or mRFP-expressing neurons in three 1- or 5-s pulses (10 s apart) using an 8-channel drug delivery system (ALA Scientific Instruments). In some experiments BN52021 (Biomol) or CNQX and AP-5 were added.
# as §3, §4
# [3] = system: CA1 pyramidal neurons; assay: Dendritic beading after high-frequency Schaffer collateral stimulation (HFS) in acute hippocampal slices; settings: for effect on HFS-induced dendritic beading in cPAF-exposed slices: BAPTA 5 mM in pipette, Ac-DEVD-CHO 10 μM intracellular, L-NAME 100 μM, diazoxide 30 μM bath 40 to 60 min prior to HFS; for rate of beading following HFS in cPAF-exposed neurons: 1 μM cPAF plus CV-3988 10 μM, BN52021 2 μM or L-NAME 100 μM
# Description: (§5) Imaging and LTP in acute hippocampal slices. Brains were removed from 17-30 day-old male Sprague-Dawley rats anesthetized with ketamine (180 μg/g), submerged them in ice-cold solution (in mM: NaCl 125, KCl 5, NaH2PO4 1.25, NaHCO3 28, CaCl2 0.5, MgCl2 4, D-glucose 25, kynurenic acid 1, bubbled with 95% O2/5% CO2), and cut 250 μm coronal slices using a vibroslice. Slices recovered in artificial cerebrospinal fluid (aCSF, in mM: NaCl 125, KCl 2.5, NaH2PO4 1.25, NaHCO3 25, CaCl2 2, MgCl2 1, D-glucose 25, bubbled with 95% O2/5% CO2) for >90 min prior to experiments.
# (§6) Slices were transferred to a custom-made recording chamber perfused (1 ml/min) with aCSF containing 1 μM cPAF or vehicle. Membrane potentials from CA1 pyramidal neurons were recorded via whole-cell patch clamp, using 4-6 MΩ electrodes (filled with, mM: KCl 20, potassium gluconate 130, EGTA 0.5, HEPES10, MgSO4 2, ATP 2.5, GTP 0.5, pH 7.3) and a Multiclamp 700A amplifier with pClamp 9 software (Axon Instruments). Afferents were stimulated by constant current pulses (200 μs) via a bipolar stimulating electrode 50-200 μm away in the stratum radiatum. 10 μM bicuculline were included in the aCSF to isolate EPSPs, and adjusted stimulating intensity to elicit EPSPs 30% of maximal. After >10 min of test pulses (every 15 s), […] a high-frequency stimulus (HFS; three 1 s, 100 Hz trains, 20 s apart, at test-pulse intensity), then resumed test pulses for ≧50 min. […] Rising EPSP slope was used instead of peak amplitude as an index of synaptic efficacy to, avoid complication by action potentials evoked by some EPSPs after HFS. Amplitude (maximal sustained depolarization) and duration (at >25% maximal amplitude) of depolarization during HFS were also quantified.
# Fluorescent images of dendrites from recorded cells were collected before and after HFS, after allowing 30 μM Alexa Fluor 568 hydrazide (Molecular Probes) in the recording electrode to fill the cell for >20 min. Using an external shutter to limit light exposure, image frames were captured at multiple focal planes and combined optimally-focused portions of these frames to display a composite image.
# as §3, §4
# [4] = system: CA1 pyramidal neurons; assay: EPSP potentiation (LTP) after HFS in acute hippocampal slices, whole-cell patch clamp; settings: for effect on synaptic potentiation / LTP in cPAF-exposed slices: BAPTA 5 mM, Ac-DEVD-CHO 10 μM, diazoxide 30 μM, PAF-R antagonists
# Description: as §5, §6, §4
# [5] = system: hippocampal slices; assay: Rhodamine 123 fluorescence (mitochondrial depolarization) after HFS in hippocampal slices; settings: 1 μM cPAF
# Description: The present experiments measure changes in mitochondrial membrane potential during and after HFS in hippocampal slices using the rhodamine 123, a cationic dye that distributes across the mitochondrial membrane in a voltage-sensitive manner. When loaded into hippocampal slices at a dose of 26 μM, rhodamine 123 accumulates in the mitochondria at high concentrations that causes its fluorescence to quench; if the mitochondria are subsequently depolarized, rhodamine 123 is released into the cytoplasm and its fluorescent signal increases. Mitochondrial hyperpolarization, conversely, drives more dye from the cytoplasm into the mitochondria, increasing quenching and reducing the signal. Reliability of this interpretation was confirmed by control experiments using FCCP and oligomycin to respectively depolarize and hyperpolarize the mitochondria.
# [6] = system: CA1 pyramidal neurons; assay: Membrane potential and depolarization during HFS in hippocampal slices
# Description: as §5
# Slices were transferred to a custom-made recording chamber perfused (1 ml/min) with aCSF containing 1 μM cPAF or vehicle. Membrane potentials from CA1 pyramidal neurons were recorded via whole-cell patch clamp, using 4-6 MΩ electrodes (filled with, mM: KCl 20, potassium gluconate 130, EGTA 0.5, HEPES10, MgSO4 2, ATP 2.5, GTP 0.5, pH 7.3) and a Multiclamp 700A amplifier with pClamp 9 software (Axon Instruments). Afferents were stimulated by constant current pulses (200 μs) via a bipolar stimulating electrode 50-200 μm away in the stratum radiatum. 10 μM bicuculline were included in the aCSF to isolate EPSPs, and adjusted stimulating intensity to elicit EPSPs 30% of maximal. […] Amplitude (maximal sustained depolarization) and duration (at >25% maximal amplitude) of depolarization during HFS were also quantified.
# [7] = cPAF-exposed slices plus compound (BN52021 2 μM, CV-3988 10 μM, Ac-DEVD-CHO 10 μM, diazoxide 30 μM), 40 to 50 min
# [8] = 130 nM cPAF, BN52021 10 μM pre-treatment
# [9] = cPAF-treated slices plus PAF-R antagonist
compound,measurement,setting,value
CCCCCCCCCCCCCCCCOC[C@H](COP(=O)([O-])OCC[N+](C)(C)C)OC(=O)NC [cPAF],decrease in numbers of dendritic spines,[1],45.1±5.0% and 45±5%
same,neuronal survival by Hoechst and propidium iodide staining,[1],80.2±4.3%
same,neurons that developed dendritic beading,[1]; serially-imaged cells,56%
same,cells beaded in response to three 1 s KCl pulses,"[2]; 130 nM cPAF, acute 20 to 90 min exposure",90%
same,recorded neurons with dendritic beading following HFS,[3]; 1 μM cPAF for 20 to 60 minutes prior to recording,57%
same,delay to appearance of HFS-induced dendritic beading,[3]; cPAF-exposed cells,15 to 35 min
same,cells with dendritic beading elicited by HFS,[3]; cPAF-treated slices,11 of 19
same,EPSP potentiation following HFS,"[4]; 1 μM cPAF, cells that did not develop dendritic beading, 40 to 50 min",1.60±0.26 relative to baseline
same,EPSP potentiation following HFS,"[4]; 1 μM cPAF, cells whose dendrites beaded, 40 to 50 min",0.84±0.12 relative to baseline
same,increase in rhodamine 123 fluorescence compared to control slices,[5],four-fold larger; also recorded: four-fold greater
same,peak increase in rhodamine 123 fluorescence above baseline following HFS,"[5]; CA1 stratum radiatum, 55 s after start of HFS",5.90±1.86%
same,baseline membrane potential,[6]; 1 μM cPAF for up to 7 hours,−63±3.6 mV
same,duration of depolarization during HFS,[6]; cPAF-exposed neurons,693 ± 296 ms
Ac-DEVD-CHO,effect on HFS-induced dendritic beading in cPAF-exposed slices,[3],prevented dendritic beading
same,effect on synaptic potentiation / LTP in cPAF-exposed slices,[4],failed to rescue LTP; also recorded: failed to restore a lasting potentiation
same,EPSP potentiation following HFS,"[4]; cPAF-exposed slices plus Ac-DEVD-CHO 10 μM, 0 to 10 min",1.97±0.28 relative to baseline
same,EPSP potentiation following HFS,[4]; [7],1.22±0.19 relative to baseline
N#Cc1cc2[nH]c(=O)c(=O)[nH]c2cc1[N+](=O)[O-] [CNQX],dendritic beading after 1 s KCl pulses in cPAF-exposed cultures,[2]; [8],prevented
O=C(O)CN(CC(=O)O)c1ccccc1OCCOc1ccccc1N(CC(=O)O)CC(=O)O [BAPTA],effect on HFS-induced dendritic beading in cPAF-exposed slices,[3],prevented dendritic beading; also recorded: eliminated dendritic beading
same,effect on synaptic potentiation / LTP in cPAF-exposed slices,[4],eliminated synaptic potentiation
COC(=O)[C@@H](N)CCCNC(=N)N[N+](=O)[O-] [L-NAME],rate of beading following HFS in cPAF-exposed neurons,[3],57%
same,effect on HFS-induced dendritic beading in cPAF-exposed slices,[3],no protection; also recorded: no effect
CC1C(=O)OC2C(O)C34C5CC(C(C)(C)C)C36C(OC(=O)C6O)OC4(C(=O)O5)C12O (stereo not shown) [BN52021],dendritic beading after 1 s KCl pulses in cPAF-exposed cultures,[2]; [8],no cells developed beading; also recorded: blocked the increase in vulnerability
same,cells beaded after 5 s KCl pulses,"[2]; cPAF-exposed, BN52021 10 μM pre-treatment",86%
same,rate of beading following HFS in cPAF-exposed neurons,[3],10%
same,cells with dendritic beading elicited by HFS,[3]; [9],1 of 10
same,EPSP potentiation following HFS,[4]; [7],1.29±0.05 relative to baseline
CCCCCCCCCCCCCCCCCCNC(=O)OCC(COP(=O)([O-])OCC[n+]1ccsc1)OC (stereo not shown) [CV-3988],rate of beading following HFS in cPAF-exposed neurons,[3],14%
same,cells with dendritic beading elicited by HFS,[3]; [9],1 of 7
same,EPSP potentiation following HFS,[4]; [7],1.07±0.13 relative to baseline
NC(CCCP(=O)(O)O)C(=O)O (stereo not shown) [AP-5],dendritic beading after 1 s KCl pulses in cPAF-exposed cultures,[2]; [8],prevented
